Our source for the 1807 reactive values is patent US9993534B2, “Method of treating fungal infection” (Wisconsin Alumni Research Foundation, priority 2013, dated 2018).

In this assay the test system is 1807 cells. Format: cell-based, mouse. Conditions: Calnexin peptide #1, 13 amino acid sequence of the named species.

Take LVLKSRAKHHAIS [Homo sapiens (Calmegin)]: the 1807 reactive entry is listed as “not reactive with the 1807 cells”.
